From paper doi:10.1101/2025.09.12.675753, “In search of nonlipogenic ABCA1 inducers (NLAI): precision coregulator TR-FRET identifies diverse signatures for LXR ligands” (bioRxiv, 2025)
“Also recorded” adds a separate entry of the source. Where two headings read alike, the source gives them in different places. Each block holds one compound with its values, some of them ahead of it.

How the values were obtained:
LXRβ [1] = target: T1, LXRβ (Homo sapiens, UniProt P55055); conditions: for LXR isoform selectivity, SRC-1 recruitment: LXRβ versus LXRα
T1 sequence (P55055 222-460 limits assumed): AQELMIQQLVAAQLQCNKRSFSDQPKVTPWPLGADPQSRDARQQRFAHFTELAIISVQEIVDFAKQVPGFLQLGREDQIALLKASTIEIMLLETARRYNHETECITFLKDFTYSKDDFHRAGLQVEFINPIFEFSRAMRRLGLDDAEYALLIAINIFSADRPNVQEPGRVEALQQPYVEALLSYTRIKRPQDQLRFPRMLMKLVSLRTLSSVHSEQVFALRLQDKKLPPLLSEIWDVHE

HepG2 cells [2] = system: HepG2 cells
[3] = po; cited from earlier work
LXRα [4] = target: T2, LXRα (Homo sapiens, UniProt Q13133); test: Corepressor (NCOR2, SMRT2) binding CRT, LXRα; conditions: absence of coactivator
T2 sequence (Q13133 209-447 limits assumed): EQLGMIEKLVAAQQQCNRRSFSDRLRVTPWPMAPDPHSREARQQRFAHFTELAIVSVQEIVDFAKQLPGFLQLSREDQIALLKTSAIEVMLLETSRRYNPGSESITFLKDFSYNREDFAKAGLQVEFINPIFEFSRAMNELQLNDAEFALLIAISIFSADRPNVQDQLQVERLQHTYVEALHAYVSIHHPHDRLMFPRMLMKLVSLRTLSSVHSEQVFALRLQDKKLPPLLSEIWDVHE

LXRβ [5] = target: T1, LXRβ; test: Corepressor (NCOR2, SMRT2) binding CRT, LXRβ; conditions: absence of coactivator
LXRα [6] = target: T2, LXRα; conditions: ligand alone, normalized to T0 (100%)
PXR = PXR (Homo sapiens, UniProt O75469); test: Lanthascreen CRT, SRC1-4 recruitment to PXR; assay type: biochemical; conditions: SRC1-4 coactivator
C57Bl/6 mice = system: C57Bl/6 mice; design: method as in PMID 15145986; conditions: cited from earlier work
hamsters = system: hamsters; design: method as in PMID 16024916; conditions: cited from earlier work
cynomolgus monkeys = system: cynomolgus monkeys; design: method as in PMID 16024916; conditions: cited from earlier work
LXRα [7] = target: T2, LXRα; test: Multiplex precision CRT (pCRT), SRC1 and NCoR2, LXRα; assay type: biochemical; design: NR-LBD with short coregulator peptides as used in the present work; purchased Thermo Fisher Scientific PV4657; conditions: isoform not given
LXRβ [8] = target: T1, LXRβ; test: Multiplex precision CRT (pCRT), SRC1 and NCoR2, LXRβ; assay type: biochemical; design: NR-LBD with short coregulator peptides as used in the present work; purchased Thermo Fisher Scientific PV4660; conditions: isoform not given
LXRα [9] = target: T2, LXRα; design: NR-LBD with short coregulator peptides as used in the present work; purchased Thermo Fisher Scientific PV4657; method as in PMID 16354658; conditions: CRT; cited from earlier work
HepG2 cells [10] = system: HepG2 cells; design: method as in PMID 28087808; conditions: cited from earlier work
HepG2 cells [11] = test: Cytotoxicity seen in HepG2 cell treatment; conditions: higher concentrations

PXR, sequence (O75469 146-433 limits assumed): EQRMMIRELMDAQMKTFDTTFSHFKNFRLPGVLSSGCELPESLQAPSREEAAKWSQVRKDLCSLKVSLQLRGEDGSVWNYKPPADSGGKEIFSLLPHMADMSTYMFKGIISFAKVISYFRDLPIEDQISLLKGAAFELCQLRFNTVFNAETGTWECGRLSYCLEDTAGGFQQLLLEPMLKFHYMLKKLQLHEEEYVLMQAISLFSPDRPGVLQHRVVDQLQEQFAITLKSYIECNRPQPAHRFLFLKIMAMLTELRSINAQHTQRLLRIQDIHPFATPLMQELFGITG

Compound: CC(CCC(=O)N(C)C)C1CCC2C3CC=C4CC(O)CCC4(C)C3CCC12C (stereo not drawn) [DMHCA, N,N-dimethyl-3β-hydroxy-cholenamide]
LXR isoform selectivity, SRC-1 recruitment (LXRβ [1]): nonselective
Cytotoxicity (HepG2 cells [2]): cytotoxic at higher concentrations
Metabolic lability and oral bioavailability [3]: metabolically labile with poor oral bioavailability
NCOR2 binding to LXRα, ligand effect (LXRα [4]): little or no effect
NCOR2 binding to LXRβ, ligand effect (LXRβ [5]): little or no effect; also recorded: does not displace NCOR2 from LXRβ in the absence of SRC1
SRC-1 recruitment to LXRα, efficacy relative to T0 (LXRα [6]): partial agonist activity at LXRα

PXR agonism/binding in CRT (PXR): no binding to PXR
Left-shift in the NCOR2 displacement curve, pCRT versus CRT (LXRα [7]): 100 fold
Left-shift in the NCOR2 displacement curve, pCRT versus CRT (LXRβ [8]): 100 fold
Compound: O=C(O)Cc1cccc(OCCCN(Cc2cccc(C(F)(F)F)c2Cl)CC(c2ccccc2)c2ccccc2)c1 [GW3965]
Liver weight and TGs (C57Bl/6 mice; 3 days treatment, GW3965 even at 100mg/kg/day): no effect on these liver markers
SREBP1c and FAS expression in the liver (C57Bl/6 mice; 3 days treatment): minimal increases in SREBP1c and FAS expression in the liver
ABCA1 expression increase, peripheral macrophages (C57Bl/6 mice; peripheral macrophages): 7 fold
ABCA1 expression increase, small intestine (C57Bl/6 mice; small intestine): 8 fold
Plasma TG, LDL-C and VLDL-C (hamsters): dose-dependent increase
TG and LDL (cynomolgus monkeys): no effect on TG
Concentration for weak recruitment of NCOR1 to LXRα (LXRα [9]): > 1 µM

Compound: CN(CC(=O)Nc1ccc(F)c(F)c1F)C(=O)c1ccc2c(c1)OCCO2 [IMB-808]
Lipogenicity in HepG2 cells (HepG2 cells [10]): nonlipogenic in HepG2 cells

Compound: CC(C)C(O)CC[C@@H](C)[C@H]1CC[C@H]2[C@@H]3CC=C4C[C@@H](O)CC[C@]4(C)[C@H]3CC[C@]12C (stereo partly drawn) [24HC, 24-hydroxycholesterol]
LXR isoform selectivity, SRC-1 recruitment (LXRβ [1]): nonselective
SRC-1 recruitment to LXRβ, efficacy/potency relative to T0 (LXRβ [1]; ligand alone, normalized to T0 (100%)): partial agonist
Cytotoxicity (HepG2 cells [11]): cytotoxic at higher concentrations
SRC-1 recruitment to LXRα, efficacy relative to T0 (LXRα [6]): partial agonist
